Like-named read-outs stand apart in the source and are kept apart here.
Key:
[1] = molecular target: mitochondrial complex III (MiaPaCa-2 cells) (Homo sapiens, UniProt P00156); assay: Complex III-dependent oxygen consumption in permeabilized cells, Seahorse XF-96; type: cell-based
How it was run: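 MiaPaCa-2 cells were treated 24 h with Mito-PEG-ATO analogs, and OCR was read on a Seahorse XF-96; basal respiration was taken in intact cells. For complex I, permeabilized cells received 10 mM pyruvate, 1.5 mM malate and 10 mM malonate; for complex III, 0.5 mM duroquinol, 1 µM rotenone and 10 mM malonate, both in mannitol/sucrose buffer. IC50 values were derived from the OCR data.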

MiaPaCa-2 cells [2] = assay: Intracellular ATP, luciferase-based assay; type: cell-based, human
Procedure: After seeding cells overnight at 2 × 10^4 per well in 96-well plates, cells were treated for 24 h. Intracellular ATP levels were determined in cell lysates using a luciferase-based assay per the manufacturer’s instructions (cat# FLAA, Sigma Aldrich, St. Louis, MO). In brief, the assay starts by rapidly adding an ATP assay mix solution (luciferase and luciferin solution, cat# FLAAM) to cell lysates. This is swirled briskly to mix, and the amount of light produced is immediately measured with a luminometer. The results were normalized to the total protein level measured in each well, as determined by the Bradford method (Bio-Rad Laboratories, Hercules, CA).

MiaPaCa-2 cells [3] = assay: Cell proliferation (cell confluence), IncuCyte Live-Cell Analysis System; type: cell-based, human; conditions: for IC50: Homo sapiens; for Cell confluence (% of control): control ~90% confluence
How it was run: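 MiaPaCa-2 cells in DMEM with 10% FBS, plated at 1,000 cells/well in triplicate and adhered overnight, then treated with Mito-PEG-ATO analogs. Confluence imaged label-free over several days, increase in percent confluence serving as proliferation surrogate.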

Chain of mitochondrial complex III (MiaPaCa-2 cells) (P00156 whole entry): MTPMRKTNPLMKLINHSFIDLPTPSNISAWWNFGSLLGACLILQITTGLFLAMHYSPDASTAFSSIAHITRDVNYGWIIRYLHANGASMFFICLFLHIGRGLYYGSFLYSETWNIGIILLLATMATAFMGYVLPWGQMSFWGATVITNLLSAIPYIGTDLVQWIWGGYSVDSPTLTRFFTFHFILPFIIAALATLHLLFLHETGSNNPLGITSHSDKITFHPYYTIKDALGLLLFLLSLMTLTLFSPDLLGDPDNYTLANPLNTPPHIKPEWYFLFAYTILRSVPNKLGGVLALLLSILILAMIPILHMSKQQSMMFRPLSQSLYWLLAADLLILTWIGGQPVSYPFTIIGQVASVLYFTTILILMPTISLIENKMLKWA
Chain of mitochondrial complex III (MiaPaCa-2 cells) (P47985 whole entry partner): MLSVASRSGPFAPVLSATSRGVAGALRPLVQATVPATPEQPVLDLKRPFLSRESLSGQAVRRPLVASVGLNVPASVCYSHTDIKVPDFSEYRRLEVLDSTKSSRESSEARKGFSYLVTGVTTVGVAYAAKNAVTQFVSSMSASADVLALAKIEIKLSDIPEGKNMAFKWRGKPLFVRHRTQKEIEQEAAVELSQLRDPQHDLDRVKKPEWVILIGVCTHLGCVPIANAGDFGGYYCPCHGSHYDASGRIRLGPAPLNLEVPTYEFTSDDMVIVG

In the case of Cc1[nH]nc(C(F)(F)F)c1Cc1sc2c(c1C(=O)N1C[C@](C)(O)CO1)c(=O)n(C)c(=O)n2C(C)C [AZD-3965], the “Effect on the decrease in complex III-induced oxygen consumption induced by Mito-PEG5-ATO” value ([1]; MiaPaCa-2 cells, with Mito-PEG5-ATO) is reported as “Neither AZD-3965 nor V-9302 significantly affected”, the “intracellular ATP level” value (MiaPaCa-2 cells [2]; AZD-3965 10 µM, Mito-PEG5-ATO 0 µM, 24 h treatment, mean n=4) is reported as 28.98 nmol ATP/mg protein and the “intracellular ATP level” value (MiaPaCa-2 cells [2]; AZD-3965 20 µM, Mito-PEG5-ATO 0 µM, 24 h treatment, mean n=4) is reported as 29.42 nmol ATP/mg protein. For the same compound, the “intracellular ATP level” value (MiaPaCa-2 cells [2]; AZD-3965 30 µM, Mito-PEG5-ATO 0 µM, 24 h treatment, mean n=4) was 28.90 nmol ATP/mg protein, the “intracellular ATP level” value (MiaPaCa-2 cells [2]; AZD-3965 40 µM, Mito-PEG5-ATO 0 µM, 24 h treatment, mean n=4) was 30.34 nmol ATP/mg protein and the “intracellular ATP level” value (MiaPaCa-2 cells [2]; AZD-3965 60 µM, Mito-PEG5-ATO 0 µM, 24 h treatment, mean n=4) was 30.77 nmol ATP/mg protein. The “intracellular ATP level” value (MiaPaCa-2 cells [2]; AZD-3965 80 µM, Mito-PEG5-ATO 0 µM, 24 h treatment, mean n=4) was 30.40 nmol ATP/mg protein, the “intracellular ATP level” value (MiaPaCa-2 cells [2]; AZD-3965 100 µM, Mito-PEG5-ATO 0 µM, 24 h treatment, mean n=4) was 31.41 nmol ATP/mg protein and the “intracellular ATP level” value (MiaPaCa-2 cells [2]; AZD-3965 150 µM, Mito-PEG5-ATO 0 µM, 24 h treatment, mean n=4) was 32.36 nmol ATP/mg protein. The “intracellular ATP level” value (MiaPaCa-2 cells [2]; AZD-3965 200 µM, Mito-PEG5-ATO 0 µM, 24 h treatment, mean n=4) was 30.51 nmol ATP/mg protein, the “intracellular ATP level” value (MiaPaCa-2 cells [2]; AZD-3965 400 µM, Mito-PEG5-ATO 0 µM, 24 h treatment, mean n=4) was 31.60 nmol ATP/mg protein and the “intracellular ATP level” value (MiaPaCa-2 cells [2]; AZD-3965 600 µM, Mito-PEG5-ATO 0 µM, 24 h treatment, mean n=4) was 31.63 nmol ATP/mg protein. For the same compound, the IC50 (MiaPaCa-2 cells [3]; MIA PaCa-2, read-out: IC50 (cell proliferation) without Mito-PEG5-ATO) was 278000 nM, the “Inhibition of cell proliferation in combination with Mito-PEG5-ATO (combination index)” value (MiaPaCa-2 cells [3]; MiaPaCa-2 cells, combined with Mito-PEG5-ATO) was “synergistic” and the “% changes of IC50 with vs without Mito-PEG5-ATO” value (MiaPaCa-2 cells [3]; MiaPaCa-2 cells, heat map Fig. 7d) was 52.5%.
For O=C1C(OCCOCCOCCOCCOCC[P+](c2ccccc2)(c2ccccc2)c2ccccc2)=C([C@H]2CC[C@H](c3ccc(Cl)cc3)CC2)C(=O)c2ccccc21.[Br-] [Mito-PEG5-ATO, [14-((3-(trans-4-(4-chlorophenyl)cyclohexyl)-1,4-dioxo-1,4-dihydronaphthalen-2-yl)oxy)-3,6,9,12-tetraoxatetradecyl]triphenylphosphonium bromide], the “Complex III activity (OCR, % of control)” value ([1]; 0.003 µM) was 94.9 % of control, the “Complex III activity (OCR, % of control)” value ([1]; 0.01 µM) was 94.3 % of control and the “Complex III activity (OCR, % of control)” value ([1]; 0.03 µM) was 84.2 % of control. For the same compound, the “Complex III activity (OCR, % of control)” value ([1]; 0.05 µM) was 89.9 % of control, the “Complex III activity (OCR, % of control)” value ([1]; 0.075 µM) was 89.1 % of control and the “Complex III activity (OCR, % of control)” value ([1]; 0.1 µM) was 87.5 % of control. The “Complex III activity (OCR, % of control)” value ([1]; 0.3 µM) was 61.6 % of control, the “Complex III activity (OCR, % of control)” value ([1]; 0.5 µM) was 38.4 % of control and the “Complex III activity (OCR, % of control)” value ([1]; 1 µM) was 17.8 % of control. For the same compound, the “Complex III activity (OCR, % of control)” value ([1]; 3 µM) was 8.0 % of control, the IC50 ([1]; MiaPaCa-2 cells, 24 h treatment, antimycin A-inhibitable OCR, read-out: IC50, complex III-induced oxygen consumption (Complex III activity)) was 390 nM and the “Intracellular ATP levels” value (MiaPaCa-2 cells [2]; MiaPaCa-2 cells, 24 h, alone and with AZD-3965 or syrosingopine) was “not due to intracellular ATP depletion”. The “intracellular ATP level” value (MiaPaCa-2 cells [2]; Mito-PEG5-ATO 0.02 µM, AZD-3965 0 µM, 24 h) was 34.79 nmol ATP/mg protein, the “intracellular ATP level” value (MiaPaCa-2 cells [2]; Mito-PEG5-ATO 0.02 µM, syrosingopine 0 µM, 24 h) was 33.08 nmol ATP/mg protein and the “intracellular ATP level” value (MiaPaCa-2 cells [2]; Mito-PEG5-ATO 0.04 µM, AZD-3965 0 µM, 24 h) was 29.69 nmol ATP/mg protein. For the same compound, the “intracellular ATP level” value (MiaPaCa-2 cells [2]; Mito-PEG5-ATO 0.04 µM, syrosingopine 0 µM, 24 h) was 29.16 nmol ATP/mg protein, the “intracellular ATP level” value (MiaPaCa-2 cells [2]; Mito-PEG5-ATO 0.06 µM, AZD-3965 0 µM, 24 h) was 29.11 nmol ATP/mg protein and the “intracellular ATP level” value (MiaPaCa-2 cells [2]; Mito-PEG5-ATO 0.06 µM, syrosingopine 0 µM, 24 h) was 28.90 nmol ATP/mg protein. The “intracellular ATP level” value (MiaPaCa-2 cells [2]; Mito-PEG5-ATO 0.08 µM, AZD-3965 0 µM, 24 h) was 28.15 nmol ATP/mg protein, the “intracellular ATP level” value (MiaPaCa-2 cells [2]; Mito-PEG5-ATO 0.08 µM, syrosingopine 0 µM, 24 h) was 27.83 nmol ATP/mg protein and the “intracellular ATP level” value (MiaPaCa-2 cells [2]; Mito-PEG5-ATO 0.1 µM, AZD-3965 0 µM, 24 h) was 27.57 nmol ATP/mg protein. For the same compound, the “intracellular ATP level” value (MiaPaCa-2 cells [2]; Mito-PEG5-ATO 0.1 µM, syrosingopine 0 µM, 24 h) was 27.64 nmol ATP/mg protein, the “intracellular ATP level” value (MiaPaCa-2 cells [2]; Mito-PEG5-ATO 0.15 µM, AZD-3965 0 µM, 24 h) was 28.14 nmol ATP/mg protein and the “intracellular ATP level” value (MiaPaCa-2 cells [2]; Mito-PEG5-ATO 0.15 µM, syrosingopine 0 µM, 24 h) was 28.11 nmol ATP/mg protein. The “intracellular ATP level” value (MiaPaCa-2 cells [2]; Mito-PEG5-ATO 0.5 µM, AZD-3965 0 µM, 24 h) was 26.75 nmol ATP/mg protein, the “intracellular ATP level” value (MiaPaCa-2 cells [2]; Mito-PEG5-ATO 0.5 µM, syrosingopine 0 µM, 24 h) was 26.12 nmol ATP/mg protein and the IC50 (MiaPaCa-2 cells [3]; MIA PaCa-2, read-out: IC50, antiproliferative) was 38 nM. The “Cell confluence (% of control)” value (MiaPaCa-2 cells [3]; MiaPaCa-2 cells, 0.003 µM) was 94.98 % of control, the “Cell confluence (% of control)” value (MiaPaCa-2 cells [3]; MiaPaCa-2 cells, 0.01 µM) was 93.81 % of control and the “Cell confluence (% of control)” value (MiaPaCa-2 cells [3]; MiaPaCa-2 cells, 0.03 µM) was 74.87 % of control. The “Cell confluence (% of control)” value (MiaPaCa-2 cells [3]; MiaPaCa-2 cells, 0.05 µM) was 41.88 % of control, the “Cell confluence (% of control)” value (MiaPaCa-2 cells [3]; MiaPaCa-2 cells, 0.1 µM) was 7.64 % of control and the “Cell confluence (% of control)” value (MiaPaCa-2 cells [3]; MiaPaCa-2 cells, 0.2 µM) was 4.52 % of control. For the same compound, the “Cell confluence (% of control)” value (MiaPaCa-2 cells [3]; MiaPaCa-2 cells, 0.3 µM) was 4.07 % of control, the “Cell confluence (% of control)” value (MiaPaCa-2 cells [3]; MiaPaCa-2 cells, 0.5 µM) was 3.75 % of control and the “Cell confluence (% of control)” value (MiaPaCa-2 cells [3]; MiaPaCa-2 cells, 1 µM) was 3.53 % of control. The “Cell confluence (% of control)” value (MiaPaCa-2 cells [3]; MiaPaCa-2 cells, 3 µM) was 2.64 % of control and the “Cell confluence (% of control)” value (MiaPaCa-2 cells [3]; MiaPaCa-2 cells, 10 µM) was 2.40 % of control.
